EP4583874B1, “MULTITARGET NUCLEAR RECEPTOR LIGANDS BASED ON 2-(4-(QUINOLIN-2-YLOXY)PHENOXY)PROPANOIC ACID AND 2-(4-(QUINOXALIN-2-YLOXY)PHENOXY)PROPANOIC ACID FOR THE TREATMENT OF METABOLIC AND LIVER DISEASES” (CHARLES UNIVERSITY, FACULTY OF PHARMACY IN HRADEC KRALOVE, priority 2022, dated 2024)

Experiments:
[1] = molecular target: T1, human PPARγ (Homo sapiens, UniProt P37231); assay: PPARγ luciferase reporter gene assay (pGAL4-PPARγ / pGL5-UAS 9x) in HepG2 cells; assay type: cell-based; conditions: HepG2, 24 h
T1 construct: DNA constructs encoding human LBD domains of human PPARα, PPARγ, of LXRα (pGAL4-PPARα, pGAL4-PPARγ, pGAL4-LXRα); expressed in transfected cells; host or cells: HepG2
T1 sequence (P37231 238-503 limits assumed): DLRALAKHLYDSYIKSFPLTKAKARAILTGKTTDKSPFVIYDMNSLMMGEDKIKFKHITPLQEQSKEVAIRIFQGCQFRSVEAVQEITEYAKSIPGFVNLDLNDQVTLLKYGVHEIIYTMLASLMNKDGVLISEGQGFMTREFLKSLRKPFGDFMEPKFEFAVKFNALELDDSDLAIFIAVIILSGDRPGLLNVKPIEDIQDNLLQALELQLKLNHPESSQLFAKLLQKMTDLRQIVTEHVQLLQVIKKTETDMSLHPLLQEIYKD

[2] = molecular target: T2, human PPARα (Homo sapiens, UniProt Q07869); assay: PPARα responsive luciferase reporter gene assay (pGAL4-PPARα / pGL5-UAS 9x) in HepG2 cells; assay type: cell-based; conditions: relative activation to fenofibrate 10 µM (100%), HepG2, 24 h, negative value indicates inverse agonism
T2 construct: DNA constructs encoding human LBD domains of human PPARα, PPARγ, of LXRα (pGAL4-PPARα, pGAL4-PPARγ, pGAL4-LXRα); expressed in transfected cells; host or cells: HepG2
T2 sequence (Q07869 239-466 limits assumed): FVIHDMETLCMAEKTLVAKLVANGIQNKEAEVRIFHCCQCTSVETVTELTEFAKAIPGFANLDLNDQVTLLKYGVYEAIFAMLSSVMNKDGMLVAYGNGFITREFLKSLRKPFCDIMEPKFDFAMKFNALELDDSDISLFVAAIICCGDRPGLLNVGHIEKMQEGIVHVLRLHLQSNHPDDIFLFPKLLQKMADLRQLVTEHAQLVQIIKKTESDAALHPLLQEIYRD
Excerpt: Bezafibrate, GW7647 and WY14643 are known PPARα ligands. […] GW3965 is known high-affinity LXRα ligand. […]
(§1) In HepG2 cells, luciferase gene reporter assays have been performed with the transiently transfected reporter gene luciferase construct with the UAS yeast binding site interacting with GAL4 protein (pGL5-UAS 9x, Promega). DNA constructs encoding human LBD domains of human PPARα, PPARγ, of LXRα (pGAL4-PPARα, pGAL4-PPARγ, pGAL4-LXRα) have been cotransfected with the reporter construct. For FXR, FXRE-luc construct with FXR response elements upstream of Firefly luciferase has been used together with an expression construct for human FXR for HepG2 cells transfection. HepG2 cells were then treated with compounds of the invention for 24 h.

[3] = tested on: 3D primary human hepatocyte spheroids; assay: Gene expression in 3D primary human hepatocyte spheroids by RT-qPCR; assay type: cell-based; conditions: 3D spheroids of primary human hepatocytes (JEL donor), 72 hours
Excerpt: After the interval, spheroid have been subjected to RNA isolation and RT-qPCR was used to analyse mRNA expression using specific TaqMan probes. Expression has been quantified using a reference gene (TBP) and delta-delta method. Data represents fold up or downregulation in mRNA expression for tested genes (column) related to the expression in vehicle-treated controls (equal to 1, white color).
Human hepatocellular carcinoma HepG2 cell line was purchased from the European Collection of Cell Cultures (ECACC, Salisbury, UK). Primary human hepatocytes (donor) have been purchased from BioIV, Royston, UK.
(§2) Expressions of NR target genes mRNAs in livers of mice or in 3D cultured (spheroids) primary human hepatocytes have been performed using TaqMan probes-based RT-qPCR after isolation of total RNA by Trizol® (ThermoFischer Scientific) reagent and reverse transcription synthesis of cDNA in Quant Studio cycler. Real-time qPCR TaqMan probes have been purchased prom ThermoFisher scientific (Cat. No. 4351372 and 433118). Delta-delta method and Gapdh or TATA-box binding protein (TBP) housekeeping genes were used for relative quantification. Data are expressed as fold up-/down-regulation compared to vehicle-treated samples/mice.

[4] = tested on: C57BL/6J mice; assay: Pilot study in mice, liver mRNA expression by RT-qPCR; assay type: in vivo; conditions: 3x 30 mg/kg p.o. gavage, liver 24 h after last application, vs vehicle
Experimental: Compounds 35 and 37 have been applied three times after 24 h (3x 30 mg/kg) via p.o. gavage to wild-type C57BL/6J mice. After 24 h from the last application, mice were sacrificed, and live samples collected on dry ice for total RNA isolation. RT-qPCR experiments have been performed with TaqMan probes and expression has been quantified using a reference gene (beta-actin and Gapdh) and delta-delta method. Data represents fold up or downregulation in mRNA expression for tested genes related to the expression in vehicle-treated control animals. * - statistically significant (p<0.05) up- or down- regulation in animals treated with tested compounds (n=4).
In the pilot study, compounds of the invention 37 and 35 were applied by per os probe (gavage) to male mice of age 15 weeks (n=4 per group) three times (3 x 30 mg/kg b.w.) in 1%PEG300/methylcellulose solution (compounds of EXAMPLE 37or 35). Livers were sampled 24 hours after application into liquid nitrogen for total RNA insolation and for qRT-PCR analysis (Quantstudio 7 HT Fast Real-Time PCR System).
as §2

[5] = molecular target: T3, human FXR (Homo sapiens, UniProt Q96RI1); assay: FXR responsive luciferase reporter gene assay (FXRE-luc + human FXR expression construct) in HepG2 cells; assay type: cell-based; conditions: HepG2, 24 h
T3 construct: expressed in transfected cells; host or cells: HepG2
T3 sequence (Q96RI1 1-486): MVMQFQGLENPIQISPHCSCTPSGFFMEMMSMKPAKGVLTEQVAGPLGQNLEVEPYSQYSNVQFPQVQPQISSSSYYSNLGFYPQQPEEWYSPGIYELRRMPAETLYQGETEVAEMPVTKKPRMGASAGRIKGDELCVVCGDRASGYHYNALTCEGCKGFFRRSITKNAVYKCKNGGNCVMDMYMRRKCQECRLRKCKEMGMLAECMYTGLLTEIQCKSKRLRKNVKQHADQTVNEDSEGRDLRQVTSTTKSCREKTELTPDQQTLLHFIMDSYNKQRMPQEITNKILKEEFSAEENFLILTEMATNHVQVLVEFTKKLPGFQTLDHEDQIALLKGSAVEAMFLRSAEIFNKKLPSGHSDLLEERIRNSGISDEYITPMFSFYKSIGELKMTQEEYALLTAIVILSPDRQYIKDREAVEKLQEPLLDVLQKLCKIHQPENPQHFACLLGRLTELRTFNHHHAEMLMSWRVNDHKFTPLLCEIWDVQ
Excerpt: as §1

[6] = molecular target: T4, human LXRα (Homo sapiens, UniProt Q13133); assay: LXRα luciferase reporter gene assay, inhibition of activation by GW3965 (pGAL4-LXRα / pGL5-UAS 9x) in HepG2 cells; assay type: cell-based; conditions: HepG2, 24 h; read-out: LXRα antagonism
T4 construct: DNA constructs encoding human LBD domains of human PPARα, PPARγ, of LXRα (pGAL4-PPARα, pGAL4-PPARγ, pGAL4-LXRα); expressed in transfected cells; host or cells: HepG2
T4 sequence (Q13133 209-447 limits assumed): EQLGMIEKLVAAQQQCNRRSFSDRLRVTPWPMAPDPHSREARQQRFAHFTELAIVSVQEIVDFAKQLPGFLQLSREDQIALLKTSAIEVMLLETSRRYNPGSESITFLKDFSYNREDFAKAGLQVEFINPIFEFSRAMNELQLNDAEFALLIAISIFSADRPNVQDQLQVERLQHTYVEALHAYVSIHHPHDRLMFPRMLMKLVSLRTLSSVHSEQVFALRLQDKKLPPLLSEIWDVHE
Experimental: Bezafibrate, GW7647 and WY14643 are known PPARα ligands. […] GW3965 is known high-affinity LXRα ligand.
Inverse agonistic/antagonistic activities of tested compounds to LXRα receptor activated by the LXRα agonist GW3965(10 µM). […] Negative value indicates inverse agonism.
as §1

[7] = molecular target: T5, TGR5 (Homo sapiens, UniProt Q8TDU6); assay: TGR5 luciferase reporter assay; assay type: cell-based; conditions: relative activation to LCA 10 µM (100%), negative value indicates inverse agonism
T5 sequence (Q8TDU6 1-330): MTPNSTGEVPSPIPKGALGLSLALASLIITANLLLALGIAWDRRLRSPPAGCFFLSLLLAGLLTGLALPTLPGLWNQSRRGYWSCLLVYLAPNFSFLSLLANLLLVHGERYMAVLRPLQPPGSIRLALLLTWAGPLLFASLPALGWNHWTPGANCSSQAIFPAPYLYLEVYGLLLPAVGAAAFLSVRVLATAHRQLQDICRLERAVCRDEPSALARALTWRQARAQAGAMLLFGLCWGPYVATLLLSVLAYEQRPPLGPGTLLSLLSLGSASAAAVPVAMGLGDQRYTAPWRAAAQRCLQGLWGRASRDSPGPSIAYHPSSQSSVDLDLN

Emax at 10 µM [1] [%] | Emax at 10 µM [2] [%] | Cyp7a1 expression in the mouse liver [4] | Emax at 10 µM [5] [%] | inhibition at 10 µM [6] [%] | Emax at 10 µM [7] [%] | Compound | effect on some critical genes involved in fatty acid oxidation in comparison with fenofibrate [3] | genes involved in fatty acid catabolism ([3]; combined effect of obeticholic acid and TFCA) | Fasn gene expression in the mouse liver [4] | Pck1 gene expression in the mouse liver [4] | cholesterol efflux transporters Abcg5/8 expression in the mouse liver [4] | key protein involved in fatty acid (beta) oxidation, mRNA expression in the mouse liver [4]
4 | 117 | down-regulates | 4 | 63 | 5 | C[C@@H](Oc1ccc(Oc2ccc3ccc(Cl)cc3n2)cc1)C(=O)O [compound 35, (R)-2-(4-((7-Chloroquinolin-2-yl)oxy)phenoxy)propanoic acid] | augmented effect | suitable upregulation | down-regulate | down-regulate | down-regulates | up-regulate
1 | 0 | – | 89 | 48 | 16 | C[C@@H](Oc1ccc(Oc2ccc3c(Br)cccc3n2)cc1)C(=O)O [compound 40, (R)-2-(4-((5-Bromoquinolin-2-yl)oxy)phenoxy)propanoic acid] | – | – | – | – | – | –
